This passage reports T/C results from PubChem BioAssay AID210 (DTP/NCI, 2004).

In this assay the test system is CD2F1 mice, ip Colon 26 adenocarcinoma, median survival T/C. The assay can be described thus: NCI In Vivo Anticancer Drug Screen. Data for tumor model Colon 26 Adenocarcinoma (intraperitoneal) in CD2F1 (CDF1) mice. To be noted: endpoint: median survival time, higher = longer survival. The procedure: The antitumor activity of compounds was measured in mice bearing transplantable tumors. Survival or tumor size were measured and the results are expressed as the measurement made in the treated group (T) divided by the measurement made in the vehicle treated control group (C). The tumor model used in this assay is Colon 26 Adenocarcinoma (intraperitoneal) in CD2F1 (CDF1) mice

[1] abbreviates: dose: 100.0 mg/kg/injection, schedule: Q04DX003 (ip), vehicle: saline.

Molecules are shown by their SMILES. “And” between values parts separate entries of the source, which are not always exact repeats. Equal entries are not always repeated. Inconclusive results and toxic doses are left out.

Turning to `Cc1ccc(S(=O)(=O)N/N=C/C(=O)O)cc1`, the T/C runs as follows: (dose: 12.5 mg/kg/injection, schedule: Q04DX003 (ip), vehicle: saline with Tween-80) 174 % of control; (dose: 25.0 mg/kg/injection, schedule: Q04DX003 (ip), vehicle: saline with Tween-80) 177 % of control; (dose: 50.0 mg/kg/injection, schedule: Q04DX003 (ip), vehicle: saline with Tween-80) 212 % of control; (dose: 100.0 mg/kg/injection, schedule: Q04DX003 (ip), vehicle: saline with Tween-80) 196 % of control; (dose: 200.0 mg/kg/injection, schedule: Q04DX003 (ip), vehicle: saline with Tween-80) 193 % of control.
For the compound `CC1(C(=O)O)C(O)CCC2(C)C1CCC1CC3CC12CCC3(O)CO` (stereo not drawn), the T/C (dose: 2.5 mg/kg/injection, schedule: Q04DX002 (ip), vehicle: saline with Tween-80) was 92 % of control; the T/C (dose: 5.0 mg/kg/injection, schedule: Q04DX002 (ip), vehicle: saline with Tween-80) was 98 % of control; the T/C (dose: 10.0 mg/kg/injection, schedule: Q04DX002 (ip), vehicle: saline with Tween-80) is 106 % of control; the T/C (dose: 20.0 mg/kg/injection, schedule: Q04DX002 (ip), vehicle: saline with Tween-80) was 95 % of control; the T/C (dose: 40.0 mg/kg/injection, schedule: Q04DX002 (ip), vehicle: saline with Tween-80) was 100 % of control; the T/C (dose: 80.0 mg/kg/injection, schedule: Q04DX002 (ip), vehicle: saline with Tween-80) was 101 % of control. The T/C is 94 % of control (dose: 100.0 mg/kg/injection, schedule: Q04DX002 (ip), vehicle: distilled water + Tween-80) and 97 % of control (dose: 200.0 mg/kg/injection, schedule: Q04DX002 (ip), vehicle: distilled water + Tween-80).
For `O=C(O)C1(C(=O)O)CCC1.[NH2-].[NH2-].[Pt+2]`, the T/C by setting is: (dose: 5.85 mg/kg/injection, schedule: Q04DX003 (iv), vehicle: saline) 96 % of control; (dose: 8.78 mg/kg/injection, schedule: Q04DX003 (iv), vehicle: saline) 102 % of control; (dose: 10.0 mg/kg/injection, schedule: Q01DX004 (ip), vehicle: saline) 110 % of control; (dose: 11.7 mg/kg/injection, schedule: Q01DX001 (ip), vehicle: saline) 105 % of control; (dose: 13.2 mg/kg/injection, schedule: Q04DX003 (iv), vehicle: saline) 105 % of control; (dose: 17.6 mg/kg/injection, schedule: Q01DX001 (ip), vehicle: saline) 102 % of control. Also, the T/C (dose: 17.6 mg/kg/injection, schedule: Q01DX001 (iv), vehicle: saline) is 91 % of control; the T/C (dose: 19.8 mg/kg/injection, schedule: Q04DX003 (ip), vehicle: saline) is 171 % of control; the T/C (dose: 19.8 mg/kg/injection, schedule: Q04DX003 (iv), vehicle: saline) was 117 % of control; the T/C (dose: 20.0 mg/kg/injection, schedule: Q01DX004 (ip), vehicle: saline) is 225 % of control; the T/C (dose: 25.0 mg/kg/injection, schedule: Q04DX003 (ip), vehicle: dextrose) is 203 % of control; the T/C (dose: 26.3 mg/kg/injection, schedule: Q01DX001 (ip), vehicle: saline) is 109 % of control and 217 % of control. Besides, the T/C runs as follows: (dose: 26.3 mg/kg/injection, schedule: Q01DX001 (iv), vehicle: saline) 118 % of control and 94 % of control; (dose: 29.6 mg/kg/injection, schedule: Q04DX003 (ip), vehicle: saline) 225 % of control; (dose: 29.6 mg/kg/injection, schedule: Q04DX003 (iv), vehicle: saline) 162 % of control; (dose: 30.0 mg/kg/injection, schedule: Q04DX004 (iv), vehicle: other) 154 % of control; (dose: 33.0 mg/kg/injection, schedule: Q04DX002 (iv), vehicle: other) 109 % of control; (dose: 39.5 mg/kg/injection, schedule: Q01DX001 (ip), vehicle: saline) 168 % of control. The T/C (dose: 39.5 mg/kg/injection, schedule: Q01DX001 (iv), vehicle: saline) was 95 % of control; the T/C (dose: 40.0 mg/kg/injection, schedule: Q01DX004 (ip), vehicle: saline) was 380 % of control; the T/C (dose: 44.0 mg/kg/injection, schedule: Q04DX004 (iv), vehicle: other) is 226 % of control; the T/C (dose: 44.4 mg/kg/injection, schedule: Q04DX003 (ip), vehicle: saline) is 257 % of control; the T/C (dose: 44.4 mg/kg/injection, schedule: Q04DX003 (iv), vehicle: saline) was 188 % of control; the T/C (dose: 50.0 mg/kg/injection, schedule: Q04DX003 (ip), vehicle: dextrose) was 228 % of control. Moreover, the T/C is 217 % of control (dose: 59.3 mg/kg/injection, schedule: Q01DX001 (ip), vehicle: saline); 103 % of control and 118 % of control (dose: 59.3 mg/kg/injection, schedule: Q01DX001 (iv), vehicle: saline); 324 % of control (dose: 60.0 mg/kg/injection, schedule: Q01DX004 (ip), vehicle: saline); 253 % of control (dose: 65.0 mg/kg/injection, schedule: Q04DX004 (iv), vehicle: other); 151 % of control (dose: 66.7 mg/kg/injection, schedule: Q04DX003 (ip), vehicle: saline); 183 % of control (dose: 87.0 mg/kg/injection, schedule: Q04DX002 (iv), vehicle: other). The T/C was 217 % of control and 257 % of control (dose: 88.9 mg/kg/injection, schedule: Q01DX001 (ip), vehicle: saline); 102 % of control (dose: 88.9 mg/kg/injection, schedule: Q01DX001 (iv), vehicle: saline); 257 % of control under setting [1]; 168 % of control (dose: 100.0 mg/kg/injection, schedule: Q04DX003 (iv), vehicle: saline); 217 % of control and 257 % of control (dose: 133.0 mg/kg/injection, schedule: Q01DX001 (ip), vehicle: saline); 121 % of control and 257 % of control (dose: 133.0 mg/kg/injection, schedule: Q01DX001 (iv), vehicle: saline). Further, the T/C (dose: 200.0 mg/kg/injection, schedule: Q01DX001 (ip), vehicle: saline) was 217 % of control and 257 % of control.
For `Cc1cc(=O)n2c3c(c4c(cc13)c(CN(C)C)cc(=O)n4C)OC2`, the T/C is, setting by setting: (dose: 6.25 mg/kg/injection, schedule: Q04DX002 (ip), vehicle: saline with Tween-80) 99 % of control; (dose: 12.5 mg/kg/injection, schedule: Q04DX002 (ip), vehicle: saline with Tween-80) 99 % of control; (dose: 25.0 mg/kg/injection, schedule: Q04DX002 (ip), vehicle: saline with Tween-80) 107 % of control; (dose: 50.0 mg/kg/injection, schedule: Q04DX002 (ip), vehicle: saline with Tween-80) 102 % of control.
For the compound `CNc1nc(N(C)C)nc(N(C)C)n1`, the T/C is 105 % of control (dose: 6.25 mg/kg/injection, schedule: Q04DX003 (ip), vehicle: water); 101 % of control (dose: 12.5 mg/kg/injection, schedule: Q04DX003 (ip), vehicle: water); 98 % of control (dose: 25.0 mg/kg/injection, schedule: Q04DX003 (ip), vehicle: water); 112 % of control (dose: 50.0 mg/kg/injection, schedule: Q04DX003 (ip), vehicle: water); 121 % of control (dose: 100.0 mg/kg/injection, schedule: Q04DX003 (ip), vehicle: water); 110 % of control (dose: 200.0 mg/kg/injection, schedule: Q04DX003 (ip), vehicle: water).
`O=c1n(CC2CO2)c(=O)n(CC2CO2)c(=O)n1CC1CO1` (stereo not drawn): the T/C reads like this: (dose: 25.0 mg/kg/injection, schedule: Q04DX003 (ip), vehicle: saline) 237 % of control; (dose: 40.0 mg/kg/injection, schedule: Q04DX003 (ip), vehicle: saline) 292 % of control; (dose: 50.0 mg/kg/injection, schedule: Q04DX003 (ip), vehicle: saline) 237 % of control and 292 % of control; (dose: 60.0 mg/kg/injection, schedule: Q04DX003 (ip), vehicle: saline) 292 % of control; under setting [1], 193 % of control and 237 % of control; (dose: 200.0 mg/kg/injection, schedule: Q04DX003 (ip), vehicle: saline) 237 % of control and 292 % of control. For the same compound, the T/C is 292 % of control (dose: 300.0 mg/kg/injection, schedule: Q04DX003 (ip), vehicle: saline); 213 % of control and 292 % of control (dose: 400.0 mg/kg/injection, schedule: Q04DX003 (ip), vehicle: saline).
